Experimental data: patent US10975083B2, “Blood-brain barrier-penetrant dopamine-β-hydroxylase inhibitors” (BIAL—PORTELA & Cᵃ, S.A., priority 2016, dated 2021)

Biological target: T1, DβH (Homo sapiens, UniProt P09172)
T1 construct: reaction mixture (total volume 500 μl) contained: cellular homogenate (75 μg total protein); host or cells: SK-N-SH cell homogenate
T1 sequence (P09172 1-617): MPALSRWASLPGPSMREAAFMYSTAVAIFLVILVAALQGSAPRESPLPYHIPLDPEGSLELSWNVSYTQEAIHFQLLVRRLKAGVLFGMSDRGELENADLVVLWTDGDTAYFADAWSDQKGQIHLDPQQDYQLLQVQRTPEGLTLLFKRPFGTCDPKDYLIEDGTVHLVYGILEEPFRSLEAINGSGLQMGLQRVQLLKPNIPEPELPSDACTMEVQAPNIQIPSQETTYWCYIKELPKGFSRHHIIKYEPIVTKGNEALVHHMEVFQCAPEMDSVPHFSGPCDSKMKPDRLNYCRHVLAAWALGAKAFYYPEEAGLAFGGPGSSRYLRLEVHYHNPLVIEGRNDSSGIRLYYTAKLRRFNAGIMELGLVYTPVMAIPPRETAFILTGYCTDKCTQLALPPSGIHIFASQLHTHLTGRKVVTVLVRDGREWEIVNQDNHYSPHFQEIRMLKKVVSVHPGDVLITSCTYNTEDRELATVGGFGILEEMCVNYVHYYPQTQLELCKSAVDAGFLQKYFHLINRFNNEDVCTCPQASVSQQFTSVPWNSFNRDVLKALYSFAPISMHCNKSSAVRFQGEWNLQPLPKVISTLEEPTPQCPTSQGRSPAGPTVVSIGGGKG
Assay: DβH inhibition cell assay (SK-N-SH cellular homogenates, tyramine to octopamine)
Format: biochemical
Details: SK-N-SH cell homogenate; for remaining activity at 0.1 µM: inhibitor 0.1 μM, read-out: DβH activity in % of Ctrl (0.1 μM); for remaining activity at 1 µM: inhibitor 1 μM, read-out: DβH activity in % of Ctrl (1 μM)
Protocol: The ability of a compound to inhibit DβH activity may be assessed using the following cell assay. […] . […] Fetal bovine serum was removed from cells for 4 h prior to collection.
For the preparation of cellular homogenates, media was removed and cell monolayers were washed with 50 mM Tris-HCl pH 7.4. Cells were subsequently scrapped off the flasks and were resuspended in 50 mM Tris pH 7.4. Cell suspensions were homogenized with SilentCrusher M (Heidolph) for a short stroke and resultant homogenates were aliquoted and stored frozen at −80° C.
Total protein was quantified in cellular homogenates with BioRad Protein Assay (BioRad) using a standard curve of BSA (50-250 μg/mL).
DβH activity was measured by a modification of the method of Nagatsu and Udenfriend (Nagatsu, T. and S. Udenfriend: “Photometric assay of dopamine-hydroxylase activity in human blood.” Clin. Chem. 18(9): 980-3, 1972) which is based on the enzymatic hydroxylation of tyramine into octopamine. The octopamine formed is subsequently oxidized to p-hydroxybenzaldehyde and measured by spectrophotometry. In brief, reaction mixture (total volume 500 μl) contained: cellular homogenate (75 μg total protein) sodium acetate pH 5.0 (200 mM), NEM (30 mM), CuSO4 (5 μM), catalase aqueous solution (0.5 mg/mL), pargyline-HCl (1 mM), sodium fumarate (10 mM), ascorbic acid (10 mM), inhibitor or vehicle and tyramine (25 mM). After a 10 min pre-incubation period at 37° C., the reaction was initiated by the addition of tyramine. Reaction was carried out for 45 min at 37° C. before termination with 50 μl PCA (2 M).
Samples were centrifuged for 3 min at 16100 g and supernatants were subjected to solid phase extraction. Solid phase extraction was performed using either SPE cartridges ISOLUTE SCX-3 (100 mg, 1 mL) or SPE 2 mL fixed 96 well plates ISOLUTE SCX-3 (100 mg) previously equilibrated with MilliQ water. Columns/plates were centrifuged at 150 g for 2 min. Eluate was discarded and matrix was washed with 1 mL of MilliQ water after which octopamine was eluted with 2×0.25 mL ammonium hydroxide (4 M). The oxidation of octopamine to p-hydroxybenzaldehyde was carried out for 6 min with 100 μl sodium periodate (2%) and was stopped with 100 μl sodium metabisulfite (10%). Absorbance was measured at 330 nm on a Spectramax microplate reader (Molecular Devices, Sunnyvale, Calif.). All enzymatic reactions were performed in duplicate. Results are reported in the table below as activity in % of control at the inhibitor concentration tested.

SMILES | remaining activity at 0.1 µM | remaining activity at 1 µM | remaining activity at 10 µM (inhibitor 10 μM, read-out: DβH activity in % of Ctrl (10 μM))
CNC(=S)N1C[C@@]2(c3cc(F)cc(F)c3)C[C@H]2C1=O [Example 41, (1S,5R)-1-(3,5-difluorophenyl)-N-methyl-4-oxo-3-azabicyclo[3.1.0]hexane-3-carbothioamide] | 29.8% | 0% | –
NNC(=S)N1CC2CC2(c2cc(F)cc(F)c2)C1 (stereo not shown) [Example 45, 1-(3,5-Difluorophenyl)-3-azabicyclo[3.1.0]hexane-3-carbothiohydrazide] | – | 29.1% | –
CN(C)C(=S)N1CC2CC2(c2cc(F)cc(F)c2)C1 (stereo not shown) [Example 46, 1-(3,5-Difluorophenyl)-N,N-dimethyl-3-azabicyclo[3.1.0]hexane-3-carbothioamide] | – | 31.6% | –
N#CCNC(=S)N1CC2CC2(c2cc(F)ccc2F)C1 (stereo not shown) [Example 47, N-(cyanomethyl)-1-(2,5-difluorophenyl)-3-azabicyclo[3.1.0]hexane-3-carbothioamide] | – | 45.3% | –
Fc1cc(F)c(F)c([C@@H]2Cc3c[nH]c(=S)n3C2)c1F [Example 61, (S)-6-(2,3,5,6-tetrafluorophenyl)-6,7-dihydro-2H-pyrrolo[1,2-c]imidazole-3(5H)-thione] | 52.2% | 8.4% | –
Fc1cccc([C@@]23C[C@@H]2c2c[nH]c(=S)n2C3)c1F [Example 67, (5aR,6aS)-5a-(2,3-difluorophenyl)-5,5a,6,6a-tetrahydrocyclopropa[3,4]pyrrolo[1,2-c]imidazole-3(2H)-thione] | – | 36.1% | –
Fc1ccc(F)c([C@@]23C[C@@H]2c2c[nH]c(=S)n2C3)c1F [Example 69, (5aR,6aS)-5a-(2,3,6-trifluorophenyl)-5,5a,6,6a-tetrahydrocyclopropa[3,4]pyrrolo[1,2-c]imidazole-3 (2H)-thione] | – | 14.6% | –
Fc1ccc([C@]23C[C@H]2c2c[nH]c(=S)n2C3)c(F)c1 [Example 70, (5aS,6aR)-5a-(2,4-difluorophenyl)-5,5a,6,6a-tetrahydrocyclopropa[3,4]pyrrolo[1,2-c]imidazole-3(2H)-thione] | – | 35.7% | –
Fc1cc(Cl)cc([C@]23C[C@H]2c2c[nH]c(=S)n2C3)c1 [Example 73, (5aS,6aR)-5a-(3-chloro-5-fluorophenyl)-5,5a,6,6a-tetrahydrocyclopropa[3,4]pyrrolo[1,2-c]imidazole-3 (2H)-thione] | 41.7% | 5.1% | –
Fc1ccc(Cl)cc1[C@]12C[C@H]1c1c[nH]c(=S)n1C2 [Example 74, (5aS,6aR)-5a-(5-chloro-2-fluorophenyl)-5,5a,6,6a-tetrahydrocyclopropa[3,4]pyrrolo[1,2-c]imidazole-3 (2H)-thione] | 21.9% | 1.8% | –
Cn1cc2n(c1=S)C[C@@]1(c3cc(F)cc(F)c3)C[C@@H]21 [Example 76, (5aS,6aR)-5a-(3,5-difluorophenyl)-2-methyl-5,5a,6,6a-tetrahydrocyclopropa[3,4]pyrrolo[1,2-c]imidazole-3 (2H)-thione] | – | 17.4% | –
Cc1[nH]c(=S)n2c1[C@@H]1C[C@]1(c1cc(F)ccc1F)C2 [Example 78, (5aS,6aR)-5a-(2,5-difluorophenyl)-1-methyl-5,5a,6,6a-tetrahydrocyclopropa[3,4]pyrrolo[1,2-c]imidazole-3 (2H)-thione] | – | 10.9% | –

Further lines, results first:

remaining activity at 0.1 µM | remaining activity at 1 µM | remaining activity at 10 µM (inhibitor 10 μM, read-out: DβH activity in % of Ctrl (10 μM)) | SMILES
87.9% | – | – | Fc1ccc(F)c(C23CC2CN(C(=S)NCCS)C3)c1 (stereo not shown) [Example 40, 1-(2,5-difluorophenyl)-N-(2-mercaptoethyl)-3-azabicyclo[3.1.0]hexane-3-carbothioamide]
– | 70.9% | 13.7% | S=C1NCC2CC(c3ccccc3)CN12 (stereo not shown) [Example 44, 6-Phenyltetrahydro-1H-pyrrolo[1,2-c]imidazole-3(2H)-thione]
– | 43% | – | CNC(=S)N1C=CC(c2cc(F)cc(F)c2)C1 (stereo not shown) [Example 48, 3-(3,5-Difluorophenyl)-N-methyl-2,3-dihydro-1H-pyrrole-1-carbothioamide]
– | 60.2% | – | Fc1cc(F)cc([C@]23C[C@H]2c2n[nH]c(=S)n2C3)c1 [Example 60, (5aS,6aR)-5a-(3,5-difluorophenyl)-5,5a,6,6a-tetrahydrocyclopropa[3,4]pyrrolo[2,1-c][1,2,4]triazole-3(2H)-thione]
43.1% | 9.8% | – | Fc1cc(F)c(F)c([C@H]2Cc3c[nH]c(=S)n3C2)c1F [Example 62, (R)-6-(2,3,5,6-tetrafluorophenyl)-6,7-dihydro-2H-pyrrolo[1,2-c]imidazole-3(5H)-thione]
– | 13.9% | – | Fc1cc(F)c(F)c([C@]23C[C@H]2c2c[nH]c(=S)n2C3)c1 [Example 63, (5aS,6aR)-5a-(2,3,5-trifluorophenyl)-5,5a,6,6a-tetrahydrocyclopropa[3,4]pyrrolo[1,2-c]imidazole-3 (2H)-thione]
39.9% | 7.2% | – | Fc1cccc(F)c1[C@]12C[C@H]1c1c[nH]c(=S)n1C2 [Example 64, (5aS,6aR)-5a-(2,6-difluorophenyl)-5,5a,6,6a-tetrahydrocyclopropa[3,4]pyrrolo[1,2-c]imidazole-3(2H)-thione]
– | 17.9% | – | Fc1cccc(F)c1[C@@]12C[C@@H]1c1c[nH]c(=S)n1C2 [Example 65, (5aR,6aS)-5a-(2,6-difluorophenyl)-5,5a,6,6a-tetrahydrocyclopropa[3,4]pyrrolo[1,2-c]imidazole-3(2H)-thione]
51.1% | 7.9% | – | Fc1cccc([C@]23C[C@H]2c2c[nH]c(=S)n2C3)c1F [Example 66, (5aS,6aR)-5a-(2,3-difluorophenyl)-5,5a,6,6a-tetrahydrocyclopropa[3,4]pyrrolo[1,2-c]imidazole-3(2H)-thione]
– | 5.1% | – | Fc1ccc(F)c([C@]23C[C@H]2c2c[nH]c(=S)n2C3)c1F [Example 68, (5aS,6aR)-5a-(2,3,6-trifluorophenyl)-5,5a,6,6a-tetrahydrocyclopropa[3,4]pyrrolo[1,2-c]imidazole-3 (2H)-thione]
– | 48.5% | – | Fc1ccc([C@]23C[C@H]2c2c[nH]c(=S)n2C3)cc1F [Example 71, (5aS,6aR)-5a-(3,4-difluorophenyl)-5,5a,6,6a-tetrahydrocyclopropa[3,4]pyrrolo[1,2-c]imidazole-3(2H)-thione]
– | 35% | – | Fc1cc(F)c([C@]23C[C@H]2c2c[nH]c(=S)n2C3)cc1F [Example 72, (5aS,6aR)-5a-(2,4,5-trifluorophenyl)-5,5a,6,6a-tetrahydrocyclopropa[3,4]pyrrolo[1,2-c]imidazole-3 (2H)-thione]
– | 18.1% | – | Fc1ccc(Cl)c([C@]23C[C@H]2c2c[nH]c(=S)n2C3)c1 [Example 75, (5aS,6aR)-5a-(2-chloro-5-fluorophenyl)-5,5a,6,6a-tetrahydrocyclopropa[3,4]pyrrolo[1,2-c]imidazole-3 (2H)-thione]
– | 23% | – | Fc1cc(F)cc([C@]23C[C@H]2c2cn(C4CC4)c(=S)n2C3)c1 [Example 77, (5aS,6aR)-2-cyclopropyl-5 a-(3,5-difluorophenyl)-5,5a,6,6a-tetrahydrocyclopropa[3,4]pyrrolo[1,2-c]imidazole-3 (2H)-thione]
